{
  "source": "patent US8679513B2",
  "about": "“Cosmetic use of a jasmonic acid derivative for treating the hair and the scalp” (L'Oreal, priority 2009, dated 2014)",
  "test_system": "human epidermoid keratinocytes in culture (HaCaT) exposed to UV radiation",
  "assay": "Evaluation of the antioxidant potential: DCFH-DA test",
  "type": "cell-based",
  "conditions": "HaCaT keratinocytes pretreated 24 hours; DCFH-DA 20 μM 30 minutes; 2 J/cm^2 UVA; compound used as 30% solution in water/dipropylene glycol (70/30); preliminary tests",
  "description": "Evaluation of the Antioxidant Potential: DCFH-DA Test\nThe sodium salt of 3-hydroxy-2-pentylcyclopentane-acetic acid is used as a 30% solution in a water/dipropylene glycol mixture (70/30).\nIn a model of human epidermoid keratinocytes in culture (HaCaT) exposed to UV radiation, the global oxidative stress effect of the said compound after oxidation of a fluorescent probe (DCFH-DA) is measured.\nThe use of DCFH-DA as a marker of intracellular global oxidative stress is based on its physicochemical properties. It is a nonionic apolar molecule that is capable of diffusing across cell membranes. Once inside the cell, DCFH-DA is hydrolysed by intracellular esterases to a non-fluorescent compound: DCFH or 2,7-dichlorofluorescine. In the presence of activated oxygen species (H2O2; OH°), DCFH is rapidly oxidized to a highly fluorescent compound: DCF or 2,7-dichlorofluorescein.\nHaCaT keratinocytes pretreated with the active agents for 24 hours are rinsed with PBS+ and incubated in the presence of DCFH-DA [20 μM] for 30 minutes at 37° C. in the dark.\nAfter removal of the probe, the cells are exposed to 2 J/cm^2 of UVA (WG335 filter) in the presence of 1 ml/well of PBS+. The DCF fluorescence is evaluated immediately after the UVA exposure, by spectrofluorimetry (excitation 480 nm; emission 530 nm).",
  "data": [
    {"smiles": "CCCCCC1C(O)CCC1CC(=O)[O-].[Na+]", "note": "(stereo not shown) [sodium salt of 3-hydroxy-2-pentylcyclopentaneacetic acid]", "values": [
      {"measurement": "antioxidant potential / protection against oxidative stress (DCF fluorescence)", "result": "antioxidant potential with protection against oxidative stress"}
    ]}
  ]
}
